Measured values as given in patent US20250213550A1, “COMPOUNDS AND METHODS FOR TREATING INFLAMMATORY BOWEL DISEASE” (Gilead Sciences, Inc., priority 2023, published 2025).
Like-named read-outs stand apart in the source and are kept apart here.

System: LPS-stimulated pERK in monocytes (TPL2 pathway)
Assay: Ex vivo LPS-stimulated pERK in monocytes of whole blood after Compound 1 dosing (flow cytometry)
Set-up: species or system human
Conditions: for inhibition at 75 mg: Homo sapiens, Monocyte, 75 mg QD multiple dose, read-out: pERK Signal, % Inhibition
Description: For Cohorts 1-4, whole blood PD sampling occurred relative to the dose of Compound 1 at the following time points: • Day 1: 0 pre-dose (≤5 min prior to dosing), 1, 2, 3, 4, 8, 12, 24 and 36 hours post-dose
For Cohorts 5-9, whole blood PD sampling occurred relative to the dose of Compound 1 at the following time points: • Day 1: 0 pre-dose (≤5 min prior to dosing), 1, 2, 3, 4, 8, 12, and 24 hours post-dose • Day 10: 0 pre-dose (≤5 min prior to dosing), 1, 2, 3, 4, 8, 12, 24, 36, 48, 72, 96, and 120 hours post-dose
Whole blood PD Samples were stimulated ex vivo with lipopolysaccharide (LPS) or phosphate buffered saline (PBS), and the phosphorylation of extracellular signal-related kinase (pERK) was detected in monocytes by flow cytometry.
Pharmacodynamic changes after single and multiple doses of Compound 1 were also investigated by monitoring, in whole blood samples, stimulated with either lipopolysaccharide (LPS) or PBS for 15 minutes at 37° C. Changes to the phosphorylation of extracellular signal-regulated kinases (pERK) was measured in monocytes by flow cytometry, defined as CD15−CD14+.
Pharmacodynamic parameters for Compound 1 were calculated as percent change in pERK signal relative to Day 1 pre-dose (baseline) for all evaluable participants.
Multiple Ascending Doses: Pharmacodynamic parameters after multiple doses of Compound 1 were also calculated as percent change in pERK signal relative to Day 1 pre-dose (baseline) for all evaluable participants.

Cn1ccc2c([C@@H](c3cn(C45CC(C4)C5)nn3)N(C(=O)OCOP(=O)(O)O)c3cc(Cl)c4ncc(C#N)c(NCC(C)(C)C)c4c3)cccc2c1=O [Compound 1]
median percent change in pERK relative to baseline (75 mg QD, Day 10, 12 hours post-last dose): −48.3%
median percent change in pERK relative to baseline (75 mg QD, Day 10, 24 hours post last dose): −39.8%
median change in pERK relative to baseline (75 mg single dose, 3 hours post-dose): −86.8%
median change in pERK relative to baseline (75 mg single dose, 12 hours post-dose): −51.3%
pERK Signal, % Inhibition (75 mg single dose, Day 1 1 hour, mean (SD)): 56.4 (13.04) %
pERK Signal, % Inhibition (75 mg single dose, Day 1 1 hour, median): 62.9%
pERK Signal, % Inhibition (75 mg single dose, Day 1 3 hours, mean (SD)): 82.7 (10.42) %
pERK Signal, % Inhibition (75 mg single dose, Day 1 3 hours, median): 86.8%
pERK Signal, % Inhibition (75 mg single dose, Day 1 12 hours, mean (SD)): 52.2 (6.53) %
pERK Signal, % Inhibition (75 mg single dose, Day 1 12 hours, median): 51.3%
pERK Signal, % Inhibition (75 mg single dose, Day 1 24 hours, mean (SD)): 33.6 (4.73) %
pERK Signal, % Inhibition (75 mg single dose, Day 1 24 hours, median): 33.6%
median percent change in pERK relative to baseline (300 mg QD, Day 10, 12 hours post-last dose): −95.7%
median percent change in pERK relative to baseline (300 mg QD, Day 10, 24 hours post last dose): −91.6%
median change in pERK relative to baseline (300 mg single dose, 3 hours post-dose): −95.6%
median change in pERK relative to baseline (300 mg single dose, 12 hours post-dose): −76.6%
pERK Signal, % Inhibition (300 mg single dose, Day 1 1 hour, mean (SD)): 32.2 (35.11) %
pERK Signal, % Inhibition (300 mg single dose, Day 1 1 hour, median): 29.1%
pERK Signal, % Inhibition (300 mg single dose, Day 1 3 hours, mean (SD)): 93.4 (5.08) %
pERK Signal, % Inhibition (300 mg single dose, Day 1 3 hours, median): 95.6%
pERK Signal, % Inhibition (300 mg single dose, Day 1 12 hours, mean (SD)): 76.0 (7.04) %
pERK Signal, % Inhibition (300 mg single dose, Day 1 12 hours, median): 76.7%
pERK Signal, % Inhibition (300 mg single dose, Day 1 24 hours, mean (SD)): 66.4 (2.19) %
pERK Signal, % Inhibition (300 mg single dose, Day 1 24 hours, median): 65.3%
median percent change in pERK relative to baseline (600 mg BID, Day 10, 12 hours post-last dose): −100.2%
median percent change in pERK relative to baseline (600 mg BID, Day 10, 24 hours post last dose): −101.5%
median percent change in pERK relative to baseline (900 mg QD, Day 10, 12 hours post-last dose): −96.7%
median percent change in pERK relative to baseline (900 mg QD, Day 10, 24 hours post last dose): −98.5%
median change in pERK relative to baseline (900 mg single dose, 3 hours post-dose): −99.9%
median change in pERK relative to baseline (900 mg single dose, 12 hours post-dose): −92.1%
pERK Signal, % Inhibition (900 mg single dose, Day 1 1 hour, mean (SD)): 74.5 (38.94) %
pERK Signal, % Inhibition (900 mg single dose, Day 1 1 hour, median): 97.9%
pERK Signal, % Inhibition (900 mg single dose, Day 1 3 hours, mean (SD)): 99.8 (2.98) %
pERK Signal, % Inhibition (900 mg single dose, Day 1 12 hours, mean (SD)): 92.7 (3.10) %
pERK Signal, % Inhibition (900 mg single dose, Day 1 12 hours, median): 92.1%
pERK Signal, % Inhibition (900 mg single dose, Day 1 24 hours, mean (SD)): 83.6 (7.00) %
pERK Signal, % Inhibition (900 mg single dose, Day 1 24 hours, median): 85.8%
median change in pERK relative to baseline (1500 mg single dose, 3 hours post-dose): −99%
median change in pERK relative to baseline (1500 mg single dose, 12 hours post-dose): −96.3%
pERK Signal, % Inhibition (1500 mg single dose, Day 1 1 hour, mean (SD)): 74.8 (45.62) %
pERK Signal, % Inhibition (1500 mg single dose, Day 1 1 hour, median): 97.3%
pERK Signal, % Inhibition (1500 mg single dose, Day 1 3 hours, mean (SD)): 92.8 (16.61) %
pERK Signal, % Inhibition (1500 mg single dose, Day 1 3 hours, median): 99.0%
pERK Signal, % Inhibition (1500 mg single dose, Day 1 12 hours, mean (SD)): 93.0 (6.35) %
pERK Signal, % Inhibition (1500 mg single dose, Day 1 12 hours, median): 96.3%
pERK Signal, % Inhibition (1500 mg single dose, Day 1 24 hours, mean (SD)): 94.4 (2.50) %
pERK Signal, % Inhibition (1500 mg single dose, Day 1 24 hours, median): 94.2%
time of maximum PD effect (Day 10 of multiple doses, post-last dose): 2 to 4 h
inhibition at 75 mg (Day 1 1 hour, mean (SD)): 47.9%
inhibition at 75 mg (Day 1 1 hour, median): 44.9%
inhibition at 75 mg (Day 1 3 hours, mean (SD)): 67.5%
inhibition at 75 mg (Day 1 3 hours, median): 79.6%
inhibition at 75 mg (Day 1 12 hours, mean (SD)): 26.1%
inhibition at 75 mg (Day 1 12 hours, median): 32.4%
inhibition at 75 mg (Day 10 1 hour, mean (SD)): 62.2%
inhibition at 75 mg (Day 10 1 hour, median): 62.7%
inhibition at 75 mg (Day 10 3 hours, mean (SD)): 85.4%
inhibition at 75 mg (Day 10 3 hours, median): 88.3%
inhibition at 75 mg (Day 10 12 hours, mean (SD)): 43.5%
inhibition at 75 mg (Day 10 12 hours, median): 48.3%
inhibition at 75 mg (Day 10 24 hours, mean (SD)): 12.6%
inhibition at 75 mg (Day 10 24 hours, median): 39.8%
